Assay results as given in patent US20260070917A1, “CYCLIN DEPENDENT KINASE DEGRADERS AND METHODS OF USE THEREOF” (Differentiated Therapeutics Inc, priority 2023, published 2026).
Where two headings read alike, the source gives them in different places.

Legend:
Type in all cases: cell-based
CDK9 = target: T1, CDK9 (Homo sapiens, UniProt P50750); assay: HiBit Assay Protocol for CDK9 (HIBIT protein quantification, degradation); details: HEK293-CDK9-Hibit cells, compound treatment for 6 hours; for Dmax: read-out: CDK9 HIBIT Protein Quantification Maximum
T1 construct: host or cells: HEK293-CDK9-Hibit
In short: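 HEK293 cells carrying HiBiT-tagged CDK9 treated 6 h with compounds in a 3-fold, 10-point dilution series. CDK9 level read by lytic Nano-Glo HiBiT/LgBiT luminescence and normalized to 0.1% DMSO (high) and medium-only (low) controls. DC50 from curve fitting.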

CCNE1 = target: T2, CCNE1 (Homo sapiens, UniProt P24864); assay: HiBit Assay Protocol for CCNE1 (HIBIT protein quantification, degradation); details: HEK293-CCNE1-Hibit cells, compound treatment for 6 hours
T2 construct: host or cells: HEK293-CCNE1-Hibit
In short: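 HEK293 cells expressing HiBiT-tagged CCNE1 were seeded overnight, then treated 6 h with a 3-fold, 10-point compound dilution series. HiBiT levels were read by lytic LgBiT luminescence and normalised to DMSO-only (high) and medium-only (low) controls. DC50 was derived by curve fitting.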

CDK2 = target: T3, CDK2 (Homo sapiens, UniProt P24941); assay: HiBit Assay Protocol for CDK2 (HIBIT protein quantification, degradation); details: HEK293-CDK2-Hibit cells, compound treatment for 6 hours; for DC50: ABS DC50
T3 construct: host or cells: HEK293-CDK2-Hibit
In short: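 HEK293 cells expressing HiBiT-tagged CDK2 were seeded overnight, then treated 6 h with a 3-fold, 10-point compound dilution series. CDK2 levels were read as luminescence after lytic HiBiT/LgBiT detection, normalised to DMSO-only and medium-only controls, and DC50 derived by curve fitting.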

T1 sequence (P50750 whole entry): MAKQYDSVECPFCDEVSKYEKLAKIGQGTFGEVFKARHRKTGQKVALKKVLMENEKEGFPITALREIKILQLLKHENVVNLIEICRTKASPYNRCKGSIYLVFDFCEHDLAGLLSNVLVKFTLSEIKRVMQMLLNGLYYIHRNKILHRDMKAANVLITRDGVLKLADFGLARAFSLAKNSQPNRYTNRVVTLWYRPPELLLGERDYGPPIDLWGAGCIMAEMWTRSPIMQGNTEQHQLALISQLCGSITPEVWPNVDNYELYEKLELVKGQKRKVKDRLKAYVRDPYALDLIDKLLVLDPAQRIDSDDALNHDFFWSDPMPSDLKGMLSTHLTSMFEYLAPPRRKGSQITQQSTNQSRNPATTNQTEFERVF
T2 sequence (P24864 whole entry): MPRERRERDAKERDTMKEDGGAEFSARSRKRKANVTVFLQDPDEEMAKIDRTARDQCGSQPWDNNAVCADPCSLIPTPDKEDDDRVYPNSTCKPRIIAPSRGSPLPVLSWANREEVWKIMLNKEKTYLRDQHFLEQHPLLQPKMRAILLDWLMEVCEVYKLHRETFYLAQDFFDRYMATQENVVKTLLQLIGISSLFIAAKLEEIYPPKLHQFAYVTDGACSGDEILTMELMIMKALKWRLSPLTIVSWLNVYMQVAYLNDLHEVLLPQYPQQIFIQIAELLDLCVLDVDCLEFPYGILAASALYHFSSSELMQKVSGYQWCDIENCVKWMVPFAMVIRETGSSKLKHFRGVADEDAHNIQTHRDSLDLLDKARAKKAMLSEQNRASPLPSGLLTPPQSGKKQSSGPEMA

Row | SMILES | Dmax (CDK9) | CCNE1 HIBIT Protein Quantification Maximum (CCNE1) | CDK2 HIBIT Protein Quantification Maximum (CDK2) | DC50 (CDK2) | Dmax (CDK9; 6 h) | DC50 (CDK9; ABS DC50)
1 | O=C1CCC(N2Cc3cc(N4CCC(CN5CCN(c6cccc(S(=O)(=O)N7CCC(Nc8ncc9c(n8)N([C@@H]8CCC[C@@H](O)C8)C(=O)C98CC8)CC7)c6)CC5)CC4)ccc3C2=O)C(=O)N1 (stereo partly drawn) [Compound 119, 3-{5-[4-({4-[3-(4-{7′-[(1R,3R)-3-hydroxycyclohexyl]-6′-oxospiro[cyclopropane-1,5′-pyrrolo [2,3-d]pyrimidin]-2′-ylamino}piperidin-1-ylsulfonyl)phenyl]piperazin-1-yl}methyl)piperidin-1-yl]-1-oxo-3H-isoindol-2-yl}piperidine-2,6-dione] | 25% | 22% | 70% | 3 nM |  | 
2 | O=C1CCC(N2Cc3cc(N4CC5(CN(Cc6cccc(S(=O)(=O)N7CCC(Nc8ncc9c(n8)N([C@@H]8CCC[C@@H](O)C8)C(=O)C98CC8)CC7)c6)C5)C4)ccc3C2=O)C(=O)N1 (some centres unmarked) [Compound 120] |  | 23% | 62% | 23 nM | 25% | 
3 | O=C1CCC(N2Cc3cc(N4CCN(Cc5cccc(S(=O)(=O)N6CCC(Nc7ncc8c(n7)N([C@@H]7CCC[C@@H](O)C7)C(=O)C87CC7)CC6)c5)CC4)c(F)cc3C2=O)C(=O)N1 (stereo partly drawn) [Compound 121, 3-(6-fluoro-5-(4-(3-((4-((7′-((1R,3R)-3-hydroxycyclohexyl)-6′-oxo-6′,7′-dihydrospiro [cyclopropane-1,5′-pyrrolo[2,3-d]pyrimidin]-2′-yl)amino)piperidin-1-yl)sulfonyl)benzyl)piperazin-1-yl)-1-oxoisoindolin-2-yl)piperidine-2,6-dione] |  | 44% | 79% | 47 nM | 12% | 
4 | O=C1CCC(N2Cc3cc(N4CCN(CC5CCN(c6cccc(S(=O)(=O)N7CCC(Nc8ncc9c(n8)N([C@@H]8CCC[C@@H](O)C8)C(=O)C98CC8)CC7)c6)CC5)CC4)ccc3C2=O)C(=O)N1 (stereo partly drawn) [Compound 122, 3-{5-[4-({1-[3-(4-{7′-[(1R,3R)-3-hydroxycyclohexyl]-6′-oxospiro[cyclopropane-1,5′-pyrrolo [2,3-d]pyrimidin]-2′-ylamino}piperidin-1-ylsulfonyl)phenyl]piperidin-4-yl}methyl)piperazin-1-yl]-1-oxo-3H-isoindol-2-yl}piperidine-2,6-dione] | 22% | 25% | 79% | 7 nM |  | 
5 | O=C1CCC(N2Cc3cc(C4CN(Cc5cccc(S(=O)(=O)N6CCC(Nc7ncc8c(n7)N([C@@H]7CCC[C@@H](O)C7)C(=O)C87CC7)CC6)c5)C4)ccc3C2=O)C(=O)N1 (some centres unmarked) [Compound 123] |  | 47% | 52% | 92 nM | 8% | 
6 | O=C1CCC(N2Cc3cc(N4CCC(CN5CCN(c6cccc(S(=O)(=O)c7ccc(Nc8ncc9c(n8)N([C@@H]8CCC[C@@H](O)C8)C(=O)C98CC8)cc7)c6)CC5)CC4)ccc3C2=O)C(=O)N1 (stereo partly drawn) [Compound 124, 3-{5-[4-({4-[3-(4-{7′-[(1R,3R)-3-hydroxycyclohexyl]-6′-oxospiro [cyclopropane-1,5′-pyrrolo[2,3-d]pyrimidin]-2′-ylamino}benzenesulfonyl)phenyl]piperazin-1-yl}methyl)piperidin-1-yl]-1-oxo-3H-isoindol-2-yl}piperidine-2,6-dione] | 57% | 48% | 61% | 6 nM |  | 73.6 nM
7 | O=C1CCC(N2Cc3cc(N4CCC(N5CC(Oc6cccc(S(=O)(=O)c7ccc(Nc8ncc9c(n8)N([C@@H]8CCC[C@@H](O)C8)C(=O)C98CC8)cc7)c6)C5)CC4)ccc3C2=O)C(=O)N1 (some centres unmarked) [Compound 127] |  | 46% | 69% | 6 nM | 49% | 
8 | Cn1c(=O)n(C2CCC(=O)NC2=O)c2cccc(C3CCN(CC4CCN(S(=O)(=O)c5ccc(Nc6ncc7c(n6)N([C@@H]6CCC[C@@H](O)C6)C(=O)C76CC6)cc5)CC4)CC3)c21 (some centres unmarked) [Compound 128] |  | 32% | 32% |  | 34% | 
9 | CC1CCCC1N1C(=O)C2(CC2)c2cnc(NC3CCN(S(=O)(=O)N4CCC5(CCN(C(=O)CCCc6ccc7c(c6)n(C)c(=O)n7C6CCC(=O)NC6=O)C5)C4)CC3)nc21 (centres unmarked) [Compound 129] |  | 18% | 51% | 42 nM | 17% | 
10 | Cn1c(=O)n(C2CCC(=O)NC2=O)c2cccc(N3CCC(Cn4cc(S(=O)(=O)N5CCC(Nc6ncc7c(n6)N([C@@H]6CCC[C@@H](O)C6)C(=O)C76CC6)CC5)cn4)CC3)c21 (stereo partly drawn) [Compound 130, 3-(4-(4-((4-((4-((7′-((1R,3R)-3-Hydroxycyclohexyl)-6′-oxo-6′,7′-dihydrospiro[cyclopropane-1,5′-pyrrolo[2,3-d]pyrimidin]-2′-yl)amino)piperidin-1-yl)sulfonyl)-1H-pyrazol-1-yl)methyl)piperidin-1-yl)-3-methyl-2-oxo-2,3-dihydro-1H-benzo[d]imidazol-1-yl)piperidine-2,6-dione] | 13% | 34% | 76% | 15.8 nM |  | 
11 | O=C1CCC(N2Cc3cc(CN4CC(Oc5cccc(S(=O)(=O)N6CCC(Nc7ncc8c(n7)N([C@@H]7CCC[C@@H](O)C7)C(=O)C87CC7)CC6)c5)C4)ccc3C2=O)C(=O)N1 (stereo partly drawn) [Compound 132, 3-[5-({3-[3-(4-{7′-[(1R,3R)-3-Hydroxycyclohexyl]-6′-oxospiro[cyclopropane-1,5′-pyrrolo[2,3-d]pyrimidin]-2′-ylamino}piperidin-1-ylsulfonyl)phenoxy]azetidin-1-yl}methyl)-1-oxo-3H-isoindol-2-yl]piperidine-2,6-dione] |  | 47% | 48% |  | 7% | 
12 | O=C1CCC(N2Cc3cc(N4CCC(N5CC(Oc6cccc(S(=O)(=O)N7CCC(Nc8ncc9c(n8)N([C@@H]8CCC[C@@H](O)C8)C(=O)C98CC8)CC7)c6)C5)CC4)ccc3C2=O)C(=O)N1 (stereo partly drawn) [Compound 134, 3-[5-(4-{3-[3-(4-{7′-[(1R,3R)-3-Hydroxycyclohexyl]-6′-oxospiro[cyclopropane-1,5′-pyrrolo[2,3-d]pyrimidin]-2′-ylamino}piperidin-1-ylsulfonyl)phenoxy]azetidin-1-yl}piperidin-1-yl)-1-oxo-3H-isoindol-2-yl]piperidine-2,6-dione] | 31% | 18% | 74% | 4.22 nM |  | 
13 | CC1CCCC1N1C(=O)C2(CC2)c2cnc(NC3CCN(S(=O)(=O)N4CC5(CCCN(C6CCCN(c7cccc8c7n(C)c(=O)n8C7CCC(=O)NC7=O)C6)C5)C4)CC3)nc21 (centres unmarked) [Compound 135, 3-{3-Methyl-4-[3-(2-{4-[7′-(2-methylcyclopentyl)-6′-oxospiro[cyclopropane-1,5′-pyrrolo[2,3-d]pyrimidin]-2′-ylamino]piperidin-1-ylsulfonyl}-2,6-diazaspiro[3.5]nonan-6-yl)piperidin-1-yl]-2-oxo-1,3-benzodiazol-1-yl}piperidine-2,6-dione] | 8% | 8% | 54% | 16.3 nM |  | 
14 | CC1CCCC1N1C(=O)C2(CC2)c2cnc(NC3CCN(S(=O)(=O)N4CC5(CCCN(c6cccc(-c7cccc8c7n(C)c(=O)n8C7CCC(=O)NC7=O)c6)C5)C4)CC3)nc21 (centres unmarked) [Compound 136, 3-{3-Methyl-4-[3-(2-{4-[7′-(2-methylcyclopentyl)-6′-oxospiro[cyclopropane-1,5′-pyrrolo[2,3-d]pyrimidin]-2′-ylamino]piperidin-1-ylsulfonyl}-2,6-diazaspiro[3.5]nonan-6-yl)phenyl]-2-oxo-1,3-benzodiazol-1-yl}piperidine-2,6-dione] | 14% | 7% | 61% | 131 nM |  | 
15 | CC1CCCC1N1C(=O)C2(CC2)c2cnc(NC3CCN(S(=O)(=O)N4CC5(CCCN(C6CCN(c7cccc8c7n(C)c(=O)n8C7CCC(=O)NC7=O)C6)C5)C4)CC3)nc21 (centres unmarked) [Compound 137] |  | 38% | 52% | 3.25 nM | 8% | 
16 | CC1CCCC1N1C(=O)C2(CC2)c2cnc(NC3CCN(S(=O)(=O)N4CC5(CCCN(CCOc6cccc7c6n(C)c(=O)n7C6CCC(=O)NC6=O)C5)C4)CC3)nc21 (centres unmarked) [Compound 138, 3-{3-Methyl-4-[2-(2-{4-[7′-(2-methylcyclopentyl)-6′-oxospiro[cyclopropane-1,5′-pyrrolo[2,3-d]pyrimidin]-2′-ylamino]piperidin-1-ylsulfonyl}-2,6-diazaspiro[3.5]nonan-6-yl)ethoxy]-2-oxo-1,3-benzodiazol-1-yl}piperidine-2,6-dione] |  | 14% | 45% |  | 3% | 
